Laboratory results: patent publication US20110003012A1, “TREATING PATIENTS WITH SUBARACHNOID HEMORRHAGE” (Duke University, priority 2007, published 2011)
Like-named read-outs stand apart in the source and are kept apart here.

Experiments:
hemoglobin = assay: S-nitrosylation of hemoglobin / blood NO after 3 days exposure to ENO (FIG. 5); format: in vivo; conditions: 3 days exposure to 20 ppm ENO
subarachnoid hemorrhage [1] = assay: Laser Doppler blood flow in MCA territory and blood pressure 7 days after SAH (Background Example 3); format: in vivo; conditions: mice 7 days after SAH
Procedure: Mice were subjected to subarachnoid hemorrhage induced by filament perforation of the right middle cerebral artery (MCA). Mice were allowed to recover for 7 days. The mice were then anesthetized and a laser Doppler flow probe was positioned over the brain within the territory perfused by the MCA and blood pressure was recorded. The animals were allowed to stabilize for 30 minutes (time=1-30 min).

subarachnoid hemorrhage [2] = conditions: human, in vivo
[3] = Blood pressure with or without ENO inhalation in normal mice; conditions: inhalation of 20 ppm, n=5 each group
[4] = system: subarachnoid hemorrhage induced vasospasm; assay: Intraluminal filament-induced SAH in mice, ENO inhalation for 3 days (Background Example 2)
vasospasm = conditions: cited from earlier work
[5] = SAH mice, 20 ppm ENO inhalation 3 days, p<0.01
[6] = inhalation at 20 ppm for 3 days

For `CCON=O` [ENO, ethyl nitrite], the “Red blood cell lysate nitrosothiol (SNO) increase” value (hemoglobin; FIG. 5A) was “approximately 4 fold”, the “Total red blood cell NO” value (hemoglobin; FIG. 5B) was “increase” and the “Change in serum total NO” value (hemoglobin; FIG. 5C) was “negligible”. The Mean arterial pressure (subarachnoid hemorrhage [1]; 20 ppm ENO added to inspiratory gas) was “remained unchanged”, the “Blood flow increase (laser Doppler, MCA territory)” value (subarachnoid hemorrhage [1]; onset of 20 ppm ENO) was 25% and the Cerebral infarction (subarachnoid hemorrhage [2]) was “prevented”. The Vasospasm (subarachnoid hemorrhage [2]) was “does not occur”, the “Change in blood pressure” value [3] was “did not cause a change” and the Rotarod performance ([4]; 3 days post-SAH, inhalation of 20 ppm, p=0.06) was “a trend for improvement”. For the same compound, the “Arterial narrowing (large vessel spasm)” value [4, 5] was “improved”, the “Decreased forebrain ROD (small vessel spasm)” value [4, 5] was “improved” and the “Subarachnoid hemorrhage induced vasospasm” value [4, 6] was “attenuated”. For the same compound, the Systemic hypotension [4, 6] was “without causing systemic hypotension” and the “Effect in sham surgery mice” value ([4]; sham surgery, 20 ppm inhalation, n=5 each group, p=0.9) was “no effect”.

For `CCCCON=O` [butyl nitrite], the Cerebral infarction (subarachnoid hemorrhage [2]; iv) was “prevented”, the “Mean arterial blood pressure reduction” value (subarachnoid hemorrhage [2]; iv) was at most 10% and the Vasospasm (subarachnoid hemorrhage [2]; iv) was “does not occur”.

For `O=NO` [sodium nitrite], the “Vasospasm compared to control” value (vasospasm; both regimens: low dose infusion plus bolus, or higher dose infusion without bolus) is given as “reduced vasospasm”, the “Vasospasm reduced to” value (vasospasm; higher dose infusion, no bolus, two of three cases) is given as 20% and the “Transient blood pressure reduction” value (vasospasm; lower dose infusion over 24 hours plus bolus, after bolus) is given as “more than 15%”.
